In article doi:10.1101/2024.12.15.628575v1 (biorxiv, 2024):
Like-named read-outs stand apart in the source and are kept apart here.

Experiments:
human CPT1a [1] = target: T1, human CPT1a (Homo sapiens, UniProt P50416); test: DTNB colorimetric CoA release assay, […] nm, transfected Expi293 pellet extract; format: cell-based
T1 sequence (P50416 2-773): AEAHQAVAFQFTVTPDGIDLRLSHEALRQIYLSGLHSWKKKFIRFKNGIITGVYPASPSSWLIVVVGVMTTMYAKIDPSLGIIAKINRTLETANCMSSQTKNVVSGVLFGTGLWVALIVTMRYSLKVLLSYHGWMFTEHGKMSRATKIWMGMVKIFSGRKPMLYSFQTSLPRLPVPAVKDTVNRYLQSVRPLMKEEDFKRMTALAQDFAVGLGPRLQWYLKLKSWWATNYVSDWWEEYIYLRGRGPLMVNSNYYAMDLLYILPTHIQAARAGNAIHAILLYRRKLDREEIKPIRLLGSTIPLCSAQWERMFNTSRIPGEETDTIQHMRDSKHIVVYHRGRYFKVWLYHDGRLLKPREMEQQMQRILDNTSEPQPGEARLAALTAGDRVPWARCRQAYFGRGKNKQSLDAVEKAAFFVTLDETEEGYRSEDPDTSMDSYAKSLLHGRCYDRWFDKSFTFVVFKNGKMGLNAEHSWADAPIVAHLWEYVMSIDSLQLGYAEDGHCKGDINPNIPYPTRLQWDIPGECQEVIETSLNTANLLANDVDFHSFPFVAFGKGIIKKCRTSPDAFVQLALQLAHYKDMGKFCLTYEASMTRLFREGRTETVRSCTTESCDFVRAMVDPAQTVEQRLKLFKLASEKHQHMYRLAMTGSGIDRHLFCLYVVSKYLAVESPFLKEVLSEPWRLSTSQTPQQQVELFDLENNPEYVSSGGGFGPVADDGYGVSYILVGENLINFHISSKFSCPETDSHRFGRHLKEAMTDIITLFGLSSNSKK

human CPT1a [2] = target: T1, human CPT1a; test: as above; format: biochemical

SMILES	IC50 (human CPT1a [1])	IC50 (human CPT1a [2])
C1CCC(C(CC2CCCCN2)C2CCCCC2)CC1 (stereo not drawn) [perhexiline]	319 µM	–
O=C(O)[C@@]1(CCCCCCOc2ccc(Cl)cc2)CO1 [etomoxir]	–	4710 µM
CN(C)CCCN1c2ccccc2Sc2ccc(Cl)cc21 [chlorpromazine]	–	179 µM
